In PMC3447978, “High-Throughput 1,536-Well Fluorescence Polarization Assays for α1-Acid Glycoprotein and Human Serum Albumin Binding” (PLoS ONE, 2012):
pIC50, pKd: −log10 of the molar value.

Columns and labels:
[1] = molecular target: T1, α1-acid glycoprotein (AGP) (Homo sapiens, UniProt P02763); assay: biochemical
[2] = molecular target: T2, human serum albumin (HSA) (Homo sapiens, UniProt P02768); assay: biochemical
[3] = molecular target: T1, α1-acid glycoprotein (AGP); assay: AGP LOPAC1280 1,536-well qHTS screen (FP)
[4] = molecular target: T2, human serum albumin (HSA); assay: HSA 96-well fluorescence polarization displacement assay (dansyl sarcosine probe, Sudlow Site II)
[5] = molecular target: T1, α1-acid glycoprotein (AGP); assay: in vitro; settings: human
Method: (§1) This system features the proteins of interest covalently bound to the surface of silica beads through the use of proprietary attachment chemistry. The surface was designed to minimize interactions with drug molecules, thus preventing non-specific binding of test substances.
(§2) AGP or HSA protein-coated beads (Sovicell, Leipzig, Germany; distributed by ADMEcell, Emeryville, CA) were thawed at room temperature for two hours. Stock solutions of each compound were diluted to a final sample concentration of 20 µM or 50 µM. Samples (45 µL) were added to 405 µL of premixed solutions of buffer and AGP or HSA coated beads and mixed thoroughly to keep the beads suspended in solution to allow for the compounds to bind to the protein coated beads, [30]. After centrifuging, 100 µL of supernatant were transferred to a 96-well plate and analyzed on an Agilent 1100 HPLC coupled to a diode array detector.
(§3) After equilibrating the column with 50 mM ammonium acetate buffer/acetonitrile (99%/1%) at a flow rate of 500 µL/min for ∼2 minutes, compounds were detected by initiating a five minute gradient to 100% acetonitrile, held for 3 minutes, followed by a one minute gradient to 1% acetonitrile, where the composition was then maintained for the final three minutes, for a total run time of 12 minutes. The diode array detector channels were set to 230 nm, 260 nm, 300 nm, and 340 nm (bandwidth = 5 nm). Data were evaluated using the Sovicell-supplied Microsoft Excel (Redmond, WA) spreadsheets, [44].

[6] = molecular target: HSA protein-coated beads (Homo sapiens, UniProt P02768); assay: HSA protein-coated bead assay with HPLC analysis; type: binding; settings: compound 50 µM
Method: as §1, §2, §3

[7] = molecular target: T1, α1-acid glycoprotein (AGP); assay: biochemical; remark: listed apart in the source
[8] = molecular target: T2, human serum albumin (HSA); assay: HSA 1,536-well fluorescence polarization displacement assay (dansyl sarcosine probe, Sudlow Site II); type: binding; set-up: Albumin solution from human serum (HSA, Sigma-Aldrich, St. Louis, MO); purchased Sigma-Aldrich; host or cells: human serum
Method: For 1,536-well format (Table 2), a 3 µL mixture of HSA and dansyl sarcosine (bound control) or 3 µL of dansyl sarcosine (unbound control) were dispensed into a 1,536-well assay plate using a BioRAPTR. The plate was centrifuged at 1,000 rpm for 15 seconds, covered and incubated for 10 minutes, and FP data were collected on a ViewLux using the optics described above.
FP was measured 15 min after compound addition. Percent inhibition was derived from the bound (i.e., protein-probe complex), or 0% neutral control, and the unbound (i.e., free probe), or 100% displaced control, respectively, by calculating their mean values, and normalizing the data using GraphPad Prism 4.

[9] = molecular target: AGP protein-coated beads (Homo sapiens, UniProt P02763); assay: in vitro; settings: protein-coated bead Kd values
Method: as §1, §2, §3

[10] = molecular target: T2, human serum albumin (HSA); assay: in vitro
[11] = AGP 1,536-well Screen IC50, LOPAC1280 screen, top compound concentration 144 µM
[12] = IC50 in AGP LOPAC1280 screen, validation set members present in the LOPAC1280 collection
[13] = read-out: HSA 1,536-well IC50 (extrapolated)

Chain of AGP protein-coated beads (P02763 19-201): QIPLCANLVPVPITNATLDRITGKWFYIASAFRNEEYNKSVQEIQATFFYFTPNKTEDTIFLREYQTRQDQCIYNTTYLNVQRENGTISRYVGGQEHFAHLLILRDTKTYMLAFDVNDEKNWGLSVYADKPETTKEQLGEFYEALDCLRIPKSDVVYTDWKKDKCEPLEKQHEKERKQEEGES
T1 sequence (P02763 19-201): as above
T2 sequence (P02768 25-609): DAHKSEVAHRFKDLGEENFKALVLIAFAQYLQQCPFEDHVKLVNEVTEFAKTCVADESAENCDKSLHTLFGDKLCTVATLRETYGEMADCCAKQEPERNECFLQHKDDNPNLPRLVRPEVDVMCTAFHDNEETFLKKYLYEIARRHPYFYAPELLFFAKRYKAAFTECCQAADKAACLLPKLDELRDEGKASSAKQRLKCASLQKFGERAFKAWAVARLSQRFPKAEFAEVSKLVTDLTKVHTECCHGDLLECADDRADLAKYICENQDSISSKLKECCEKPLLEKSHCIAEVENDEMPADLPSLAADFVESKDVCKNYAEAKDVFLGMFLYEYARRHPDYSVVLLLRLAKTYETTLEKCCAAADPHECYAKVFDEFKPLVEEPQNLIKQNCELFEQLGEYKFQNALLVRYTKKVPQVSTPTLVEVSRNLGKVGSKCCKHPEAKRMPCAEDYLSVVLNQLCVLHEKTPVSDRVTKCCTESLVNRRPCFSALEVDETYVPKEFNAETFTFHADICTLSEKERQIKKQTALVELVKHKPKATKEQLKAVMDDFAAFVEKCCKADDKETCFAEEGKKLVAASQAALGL
Chain of HSA protein-coated beads (P02768 25-609): as above

pIC50 [1]	pIC50 [2]	pIC50 [3]	SMILES	pIC50 [4]	Kd at 2 min, 50 µM [5] [µM]	also measured
3.08	5.10		Nc1ccc2c3c(cccc13)C(=O)NC2=O [4-Amino-1,8-naphthalimide, 4-amino-1,8-naphthalimide]	4.43		pIC50 [3, 11]: 4.95
			CN(C)CCCN1c2ccccc2Sc2ccc(Cl)cc21 [Chlorpromazine, chlorpromazine]		7.68	pIC50 [3, 12]: 4.35
	4.40		OCCN(CCO)c1nc(N2CCCCC2)c2nc(N(CCO)CCO)nc(N3CCCCC3)c2n1 [Dipyridamole, dipyridamole]	4.21		pKd [6]: 4.45; pIC50 ([8]; read-out: HSA 1,536-well IC50): < 2.82
	5.10	< 3.84	CN(C)c1cc2c(Nc3ccc4c(cnn4Cc4ccccc4)c3)ncnc2cn1 [GW2974]	5.33		
			CN(C)CCCN1c2ccccc2CCc2ccccc21 [Imipramine, imipramine]	2.28	10.4	Ratio (HSA Kd / AGP Kd) [9]: 14; pKd [6]: 3.83; pIC50 [8, 13]: < 2.82
			COc1ccc2c(c1)c(CC(=O)O)c(C)n2C(=O)c1ccc(Cl)cc1 [Indomethacin, indomethacin]		78.8	
4.98	4.25	4.70	CCCC(=O)NCCc1c2n(c3ccc(OC)cc13)CCCc1ccccc1-2 [K 185]	4.08		
5.69	4.15	4.85	COc1cc2nc(N3CCN(C(=O)OCc4ccccc4)C(C(=O)NC(C)(C)C)C3)nc(N)c2cc1OC [L-765,314]	5.28		
4.66		4.45	O=C1N(c2ccccc2)c2ccccc2C1(Cc1ccncc1)Cc1ccncc1 [Linopirdine, linopirdine]			pIC50 ([10]; probe dansyl sarcosine): < 3.82
5.60			CC#C[C@]1(O)CC[C@H]2[C@@H]3CCC4=CC(=O)CCC4=C3[C@@H](c3ccc(N(C)C)cc3)C[C@@]21C [Mifepristone, mifepristone]			pIC50 ([10]; probe dansyl sarcosine): < 3.82; pIC50 [3, 11]: 5.20
4.62		4.65	CCC(C)N(C)C(=O)c1cc2ccccc2c(-c2ccccc2Cl)n1 (centres unmarked) [PK 11195]			pIC50 ([10]; probe dansyl sarcosine): < 3.82
			CC(C)NCC(O)COc1cccc2ccccc12 (centres unmarked) [Propranolol, propranolol]	2.27	19.2	Ratio (HSA Kd / AGP Kd) [9]: 29; pKd [6]: 3.26; pIC50 [3, 12]: 4.30; pIC50 ([3]; average IC50, intraplate control, AGP screen, LOPAC1280 screen intraplate control): 4.31; pIC50 [8, 13]: < 2.82
5.32	4.35		OCc1ccc(-c2nn(Cc3ccccc3)c3ccccc23)o1 [YC-1]	5.29		pIC50 [3, 11]: 5.25

SMILES	pIC50 [1]	pIC50 [2]	pIC50 [3]	pIC50 [4]	Kd at 2 min, 50 µM [5] [µM]	also measured
C=CCc1ccccc1OCC(O)CNC(C)C (centres unmarked) [Alprenolol, alprenolol]	3.56			2.77	33.8	HSA Kd [6]: apparent inability to bind to the HSA protein coated beads; pIC50 [7]: 3.56; pIC50 ([8]; read-out: HSA 1,536-well IC50): < 2.82
Nc1nc(N)c2nc(CNc3ccc(C(=O)N[C@@H](CCC(=O)O)C(=O)O)cc3)cnc2n1 [Aminopterin, aminopterin]	3.51	5.05	4.25	4.66		
CN(C)CCC=C1c2ccccc2CCc2ccccc21 [Amitriptyline, amitriptyline]	3.65			2.17	1.89	Ratio (HSA Kd / AGP Kd) [9]: 63; pKd [6]: 3.92; pIC50 [7]: 3.66; pIC50 ([8]; read-out: HSA 1,536-well IC50): < 2.82
CCCCC1C(=O)N(c2ccccc2)N(c2ccccc2)C1=O [Phenylbutazone, phenylbutazone]	< 3.00				247	pIC50 [7]: 2.98
COc1ccc(C(CN(C)C)C2(O)CCCCC2)cc1 (centres unmarked) [Venlafaxine, venlafaxine]	< 3.00		< 3.84	< 3.00		pIC50 [10]: < 3.82
